Test results as given in patent US20150105324A1, “COMPOSITIONS AND METHODS FOR TREATING PTSD AND RELATED DISEASES” (INDIANA UNIVERSITY RESEARCH AND TECHNOLOGY CORPORATION, priority 2012, published 2015).
pIC50: −log10 of the molar value.

Legend:
[1] = system: rats (conditioned fear, percent time freezing); assay: Conditioned Fear Test; assay type: in vivo, rat; settings: for acquisition of conditioned fear / fear extinction: compared to respective vehicle groups; for fear extinction: post conditioning treatment; for percent time freezing on test day 1 / percent time freezing during acquisition / percent time freezing during recall: rats; for percent time freezing on test day 1: after fear conditioning, FIGS. 1 and 2; for percent time freezing on test day 1 / percent time freezing during acquisition: vs vehicle; for percent time freezing during acquisition: acquisition of fear conditioning; for percent time freezing during recall: recall on day 3; for conditioned fear response 24 hours later (day 3 fear recall): treatment 5-60 min following the day 2 conditioning session
Experimental: Conditioned Fear Test. The conditioning chamber (Hamilton-Kinder, Paolo Alto, Calif.) is equipped to present light and tone cues along with a video camera set up to record behavior. The entire chamber is enclosed in a sound attenuated box. The animals went through 5 days of experimentation: Day 1 Habituation; Day 2 Conditioning; Day 3 Fear recall testing; Day 4 Extinction Training; and Day 5 Extinction Recall Test. Day 1 Habituation: Rats are exposed to the chambers for 10 min. Day 2 Conditioning: Rats are given five presentations of the tone CS (4 kHz, 80 dB, 20 sec) each co-terminating with a 0.8 mA foot shock lasting 0.5-s (US). The first CS-US pairing is presented 120 s into the session and the inter-trial interval (ITI) between CS-US presentations is 105 s on average (range 90-120). Conditioning sessions last about 11 minutes. Day 3 Fear recall tests: Twenty-four hours following the acquisition training, rats are given five 20-s CS presentations in the absence of the US. The first tone is presented 120 s into the session and the inter-trial interval (ITI) between CS-US presentations is 105 s on average (range 90-120). Percent time spent freezing is measured during each tone as an indication of fear recall. Recall test sessions last about 11 minutes. Extinction Training: Rats are exposed to 20 presentations of the CS in the absence of the US (mean ITI 180 s, range 120 to 240 s). Extinction Recall Test: 10 presentations of the CS only (mean ITI 180 s, range 120 to 240 s) are given 24 hrs after extinction.

[2] = system: NMDA-induced increase of cGMP in primary cultured hippocampal neurons; assay: NMDA-induced increase in cGMP in primary rat hippocampal neurons; assay type: cell-based
Experimental: (§1) NMDA-induced increase in cGMP in primary rat hippocampal neurons Neonatal rat hippocampal cultures were prepared according to Brewer (1997). Cells were cultured for 14-21 days before testing. NMDA ([…]) increased cGMP (measured by a cGMP-RIA kit from Perkin-Elmer) within 2-15 min of addition. The NMDA receptor antagonist, MK-801, and a NOS catalytic inhibitor, L-NAME, were used as positive controls.
as §1, with “neurons.” for “neurons”

[3] = system: cortical neurons stimulated with glutamate and glycine; assay: Cell viability (LDH release) assay, glutamate/glycine exposed neurons; assay type: cell-based; settings: FIG. 7; for glutamate receptor induced cell death: primary neuronal slices
Experimental: Cell viability assays. An LDH release assay was used for the measurement of cell viability. Cortical neurons were stimulated with glutamate and glycine in Mg^2+-free Locke's buffer. The neurons were washed with the buffer and incubated in cell-culture media for 12 h. Subsequently, LDH in the cell-culture media and total LDH after cell lysis were measured according to the manufacturer's instructions. LDH release was defined as ratio of LDH in the media to total LDH and normalized to the fold of control.

[4] = system: rats; assay: Open Field Test of Anxiety; assay type: in vivo, rat; settings: i.p. 60 min prior to 5 min test; IC87201 4 mg/kg, ZL006 10 mg/kg; vs vehicle
Experimental: (§2) Open Field Test of Anxiety. Adult male rats are evaluated in a conventional open field test. Compounds described herein are evaluated compared to vehicle controls. Animals are observed for duration of time spent in regions of the open field (inner region versus outer region) and line crossings during a […] period following a systemic injection of vehicle or a test compound.
(§3) Results. Animals are systemically pre-treated by i.p. injections with two different agents that are known to disrupt the nNOS-PSD95 interaction, IC87201 (4 mg/kg) and ZL006 (10 mg/kg), 60 min prior to a 5 min open field test immediately followed by a 5 min social interaction test. […] (Inner time F(2,17)=0.4, p=0.678; Outer time F(2,17)=0.4, p=0.678; Line crossings F(2,17)=1.0, p=0.405; n=6/group).

[5] = system: rats; assay: Social Interaction test; assay type: in vivo, rat; settings: i.p. 60 min prior; IC87201 4 mg/kg, ZL006 10 mg/kg; vs vehicle
Experimental: as §2, with “Social Interaction.” for “Open Field Test of Anxiety.”, “social interaction assay.” for “open field test.”, “of” for “of the”, “field test” for “field”
as §3

[6] = system: rats (conditioned fear, percent time freezing); assay: Conditioned Fear Test; assay type: in vivo, rat; settings: extinction on day 2, vs vehicle
[7] = target: PSD95-cypin protein-protein interaction (Homo sapiens, UniProt P78352); settings: plate binding assay (Florio 2009); cited from earlier work
Sequence of PSD95-cypin protein-protein interaction (P78352 whole entry): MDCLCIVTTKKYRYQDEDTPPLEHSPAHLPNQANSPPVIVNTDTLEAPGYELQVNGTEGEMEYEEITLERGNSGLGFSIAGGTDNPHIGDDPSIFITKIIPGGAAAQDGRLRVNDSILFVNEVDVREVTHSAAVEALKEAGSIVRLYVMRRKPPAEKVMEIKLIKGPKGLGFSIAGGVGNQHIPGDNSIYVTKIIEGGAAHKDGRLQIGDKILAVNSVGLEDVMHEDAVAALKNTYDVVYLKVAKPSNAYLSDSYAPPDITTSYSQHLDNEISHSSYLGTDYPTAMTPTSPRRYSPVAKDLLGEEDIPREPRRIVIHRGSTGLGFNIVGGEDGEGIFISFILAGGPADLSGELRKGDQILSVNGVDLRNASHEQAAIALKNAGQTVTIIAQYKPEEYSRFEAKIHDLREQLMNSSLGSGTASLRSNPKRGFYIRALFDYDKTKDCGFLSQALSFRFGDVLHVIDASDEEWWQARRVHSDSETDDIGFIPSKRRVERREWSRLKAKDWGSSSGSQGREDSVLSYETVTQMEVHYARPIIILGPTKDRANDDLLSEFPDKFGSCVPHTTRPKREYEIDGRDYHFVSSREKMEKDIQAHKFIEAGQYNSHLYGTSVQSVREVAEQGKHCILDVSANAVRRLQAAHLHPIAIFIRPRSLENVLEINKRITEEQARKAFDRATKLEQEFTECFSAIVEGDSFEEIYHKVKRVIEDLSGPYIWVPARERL

[8] = system: cGMP production induced by a NO donor; settings: (Florio 2009); cited from earlier work
[9] = system: nNOS-PSD95 complex; assay: Co-immunoprecipitation of nNOS-PSD95 complex in neuronal cultures; assay type: cell-based
Experimental: (§4) Co-immunoprecipitation. Cultured neurons, organotypic hippocampal slice cultures (OHSCs) or the cortices of mice were lysed and centrifuged. The supernatant was preincubated with protein G-Sepharose beads (Sigma-Aldrich) and then centrifuged to obtain the target supernatant. The antibodyconjugated protein G-Sepharose beads were incubated with the target supernatant, centrifuged, washed and heated the beads to elute bound proteins and analyzed proteins by immunoblotting.
(§5) Coimmunoprecipitation. Neurons were washed in PBS twice, and then lysed in 400 μl buffer A (50 mM Tris-HCl [pH 7.4], 150 mM NaCl, 1 mM EDTA-Na, 1% NP-40, 0.02% sodium azide, 0.1% SDS, 0.5% sodium deoxycholate, 1% PMSF, 1‰ aprotinin, 1‰ leupeptin, and 0.5‰ pepstatin A). The lysates were centrifugated at 12,000×g for 15 min at 4° C. […] Proteins were analyzed by immunoblotting.
(§6) Samples were immunoprecipitated and analyzed by western blotting with the indicated antibodies (IP for nNOS, and WB for PSD-95), and analyzed for (a) nNOS-PSD-95 complex amounts in the cortex of mice subjected to 90 min MCAO and 30 min reperfusion (n=3), as shown in FIG. 5A in wild type mice after MCAO, and (b) nNOS-PSD-95 complex amounts in neurons exposed to 50 μM glutamate with 10 μM glycine for 30 min (n=3). […]

[10] = target: T1, nNOS-PSD95 interaction (Mus musculus, UniProt Q9Z0J4); assay: Co-immunoprecipitation of nNOS-PSD95 complex in cortex of mice (MCAO/reperfusion); assay type: in vivo
T1 construct: from tissue; host or cells: mouse cortex
T1 sequence (Q9Z0J4 whole entry, the tested form may be a part): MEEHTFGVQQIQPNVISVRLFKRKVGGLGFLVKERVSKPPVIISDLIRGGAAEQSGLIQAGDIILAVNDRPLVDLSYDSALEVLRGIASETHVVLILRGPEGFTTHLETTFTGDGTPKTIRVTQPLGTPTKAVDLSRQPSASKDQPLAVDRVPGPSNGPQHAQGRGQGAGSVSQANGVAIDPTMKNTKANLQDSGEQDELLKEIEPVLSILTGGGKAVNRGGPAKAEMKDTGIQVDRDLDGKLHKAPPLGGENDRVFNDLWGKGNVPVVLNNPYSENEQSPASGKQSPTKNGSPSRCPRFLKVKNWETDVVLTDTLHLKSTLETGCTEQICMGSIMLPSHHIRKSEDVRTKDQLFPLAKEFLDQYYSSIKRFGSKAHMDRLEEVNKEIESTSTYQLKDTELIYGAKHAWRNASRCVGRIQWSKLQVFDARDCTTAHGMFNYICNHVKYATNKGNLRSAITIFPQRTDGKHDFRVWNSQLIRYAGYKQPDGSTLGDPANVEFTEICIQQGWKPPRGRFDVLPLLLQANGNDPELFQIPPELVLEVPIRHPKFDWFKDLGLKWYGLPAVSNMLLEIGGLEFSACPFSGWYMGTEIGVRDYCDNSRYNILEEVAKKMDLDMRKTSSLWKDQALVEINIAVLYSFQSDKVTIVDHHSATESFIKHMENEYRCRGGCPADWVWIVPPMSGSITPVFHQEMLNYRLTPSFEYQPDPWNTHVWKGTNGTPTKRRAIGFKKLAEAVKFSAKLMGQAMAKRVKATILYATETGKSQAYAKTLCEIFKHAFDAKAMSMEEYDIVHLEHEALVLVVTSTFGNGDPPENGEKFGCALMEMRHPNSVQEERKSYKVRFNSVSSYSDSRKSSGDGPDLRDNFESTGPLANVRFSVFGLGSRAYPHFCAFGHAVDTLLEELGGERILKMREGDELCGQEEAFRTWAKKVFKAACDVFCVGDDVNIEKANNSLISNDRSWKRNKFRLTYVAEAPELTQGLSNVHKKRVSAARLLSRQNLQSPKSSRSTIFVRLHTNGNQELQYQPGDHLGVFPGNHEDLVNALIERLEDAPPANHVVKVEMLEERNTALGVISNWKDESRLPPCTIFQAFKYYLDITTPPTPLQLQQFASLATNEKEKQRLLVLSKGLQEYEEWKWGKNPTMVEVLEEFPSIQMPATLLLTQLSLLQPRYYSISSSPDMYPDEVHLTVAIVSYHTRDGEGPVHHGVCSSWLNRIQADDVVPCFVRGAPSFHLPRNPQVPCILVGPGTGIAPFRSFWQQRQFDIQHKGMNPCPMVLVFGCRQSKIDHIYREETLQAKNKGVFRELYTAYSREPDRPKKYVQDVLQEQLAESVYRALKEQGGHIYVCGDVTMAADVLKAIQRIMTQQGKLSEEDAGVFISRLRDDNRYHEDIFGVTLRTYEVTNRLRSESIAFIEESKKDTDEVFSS
Experimental: as §4, §5, §6

[11] = target: T2, nNOS-CAPON interaction (Mus musculus, UniProt Q9Z0J4); assay: Co-immunoprecipitation of nNOS-CAPON in ischemic cortexes; assay type: in vivo; settings: 1.5 mg kg-1 i.v. 15 min before MCAO
T2 construct: from tissue; host or cells: mouse ischemic cortex
T2 sequence (Q9Z0J4 whole entry): as the sequence (Q9Z0J4 whole entry, the tested form may be a part) above
Experimental: (§7) Coimmunoprecipitation. Neurons were washed in PBS twice, and then lysed in 400 μl buffer A (50 mM Tris-HCl [pH 7.4], 150 mM NaCl, 1 mM EDTA-Na, 1% NP-40, 0.02% sodium azide, 0.1% SDS, 0.5% sodium deoxycholate, 1% PMSF, 1‰ aprotinin, 1‰ leupeptin, and 0.5‰ pepstatin A). The lysates were centrifugated at 12,000×g for 15 min at 4° C. The OHSCs or cortex of mice was homogenized in ice-cold lysis buffer A. After lysis for 15 min, samples were centrifuged at 20,000×g for 15 min. The supernatant were preincubated for 1 h at 4° C. with 0.025 ml of protein G-sepharose beads (Sigma-Aldrich) and then centrifuged to remove proteins that adhered nonspecifically to the beads and obtain the target supernatant for following IP experiment. Protein G Sepharose beads were incubated with antibodies (rabbit antibody to nNOS, 1:100, Affinity BoReagents; rabbit antibody to PSD95, 1:100, Cell Signaling Technology; and rabbit antibody to NR2B antibody, 1:200, Chemicon) for 3-4 h. The antibodies-conjugated protein G-sepharose beads and the target supernatant were added for incubation overnight. Immune complexes were isolated by centrifugation, washed 4 times with 0.05 M HEPES buffer, pH 7.1, containing 0.15% Triton X-100, 0.15 M NaCl, and 0.1×10^−3 M sodium orthovanadate, and bound proteins were eluted by heating at 100° C. in loading buffer. Proteins were analyzed by immunoblotting. […]

[12] = target: T3, PSD95-SynGAP interaction (Mus musculus, UniProt Q62108); assay: Co-immunoprecipitation of PSD95-SynGAP in ischemic cortexes; assay type: in vivo; settings: 1.5 mg kg-1 i.v. 15 min before MCAO
T3 construct: from tissue; host or cells: mouse ischemic cortex
T3 sequence (Q62108 whole entry): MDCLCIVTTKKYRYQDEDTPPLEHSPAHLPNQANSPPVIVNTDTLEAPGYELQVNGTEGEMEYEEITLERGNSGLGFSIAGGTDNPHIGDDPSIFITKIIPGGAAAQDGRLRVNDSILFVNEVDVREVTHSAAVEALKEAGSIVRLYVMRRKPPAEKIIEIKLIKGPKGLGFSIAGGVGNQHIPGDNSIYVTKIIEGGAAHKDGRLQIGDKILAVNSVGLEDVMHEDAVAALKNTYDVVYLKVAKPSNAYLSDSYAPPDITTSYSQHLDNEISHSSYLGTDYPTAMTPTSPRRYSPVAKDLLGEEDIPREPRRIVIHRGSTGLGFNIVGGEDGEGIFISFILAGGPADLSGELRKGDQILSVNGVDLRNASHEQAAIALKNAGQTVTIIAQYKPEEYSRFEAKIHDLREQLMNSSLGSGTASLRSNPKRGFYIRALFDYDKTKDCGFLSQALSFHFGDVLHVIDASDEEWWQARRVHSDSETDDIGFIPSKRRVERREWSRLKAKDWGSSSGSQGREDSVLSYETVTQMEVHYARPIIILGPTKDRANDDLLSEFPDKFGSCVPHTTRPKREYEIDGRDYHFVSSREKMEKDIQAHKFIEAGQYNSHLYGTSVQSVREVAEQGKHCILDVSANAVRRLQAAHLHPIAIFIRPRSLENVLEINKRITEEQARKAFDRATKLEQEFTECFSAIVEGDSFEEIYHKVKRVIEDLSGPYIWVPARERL
Experimental: as §7

[13] = system: NOS (total NOS, nNOS) in homogenates from the cortex of mice; assay: NOS activity assay; assay type: biochemical, mouse; settings: 10 μM, 30 min
Experimental: NOS activity assay. Nitric oxide synthase activities in the hippocampus were measured using a conventional assay. Briefly, the hippocampus was homogenized in ice-cold PBS, pH 7.4, and centrifuged at 10,000 g for 20 min at 4° C. The supernatant was ultracentrifuged at 100,000×g for 15 min at 4° C. using a 300 kDa molecular weight cut-off filter by centrifugation. NOS activity in the filtrates was measured using a commercially available kit (Calbiochem). […] Neuronal NOS activity was computed by subtracting the iNOS activity from the total NOS activity with the inhibited fraction of eNOS. Inducible NOS activity was measured by adding EGTA at 3 mM to chelate free Ca^2+ from the reaction mixture. NOS activities were expressed as unit (U). One U was defined as nanomoles of NO formed in 1 min by 1 mg of protein.

[14] = system: NMDARs EPSCs of CA1 pyramidal neurons; assay: Electrophysiological recordings in hippocampal slices; assay type: cell-based; settings: 1.0 μM, rat hippocampal slices, low-Mg2+ ACSF
Description: Electrophysiological recordings. […] Briefly, 3 weeks old rats were anesthetized with ethyl ether and decapitated, and whole hippocampus was removed from the brain. Coronal brain slices (350 μm thickness) were cut using a vibrantly blade microtome in ice-cold artificial CSF (ACSF) containing the following (in mM) 126 NaCl, 2.5 KCl, 1 MgCl2, 1 CaCl2, 1.25 KH2PO4, 26 NaHCO3, and 20 glucose. ACSF was bubbled continuously with carbogen (95% O2 and 5% CO2) to adjust the pH to 7.4. Fresh slices were incubated in chamber with carbogenated ACSF and recovered at 34° C. for at least 1.5 h before they were transferred to recording chamber. For the recording of EPSCs, the individual slices were transferred to a recording chamber, and CA1 pyramidal neurons were viewed under upright microscopy (Olympus). […] Excitatory postsynaptic responses of CA1 pyramidal neurons were evoked by stimulating the Schaffer fibers through a constant-current pulse delivered by a bipolar tungsten electrode and recorded with Axopatch-200B amplifier (Molecular Devices). […] The baseline was recorded at least 10 min to ensure the stability of the response. Data were collected with pClamp 9.2 software and analyzed using Clampfit 9.2 (Molecular Devices).

[15] = 1.5 mg/kg i.v., 15 and 60 min after dosing; FIG. 8 (Zhou 2010); cited from earlier work

SMILES | acquisition of conditioned fear [1] | fear extinction [1] | percent time freezing on test day 1 [1] | percent time freezing during acquisition [1] | percent time freezing during recall ([1]; data not shown) | conditioned fear response 24 hours later (day 3 fear recall) [1] | glutamate receptor induced cell death [3] | duration of time spent in regions of the open field (inner region versus outer region) [4] | number of line crossings [4] | social interaction duration [5] | percent time freezing during extinction [6] | other results
Oc1c(Cl)cc(Cl)cc1CNc1ccc2[nH]nnc2c1 [IC87201, 2-((1H-benzo[d][1,2,3]triazol-5-ylamino)methyl)-4,6-dichlorophenol] | identical acquisition of conditioned fear | normal patterns of fear extinction | reduced the percent time freezing on test day 1 | Neither IC8701 nor ZL006 altered the percent time freezing | Neither IC8701 nor ZL006 altered the percent time freezing | significant attenuation of conditioned fear response | disrupt nNOS downstream signaling | not observed a significant difference | not observed a significant difference | improvement in social interaction duration | Neither IC8701 nor ZL006 altered the percent time freezing | attenuation of NMDA-induced increases in cGMP [2]: dose-dependently attenuated NMDA-induced increases in cGMP; pIC50 ([2]; Rattus norvegicus, Hippocampal neuron, n=14-20, FIG. 6, read-out: IC50, attenuation of NMDA-induced increase of cGMP): 5.57; disruption of PSD95-cypin protein-protein interaction [7]: does not disrupt; effect on cGMP production induced by a NO donor [8]: no effect
O=C(O)c1ccc(NCc2cc(Cl)cc(Cl)c2O)cc1O [ZL006] | identical acquisition of conditioned fear | normal patterns of fear extinction | reduced the percent time freezing on test day 1 | Neither IC8701 nor ZL006 altered the percent time freezing | Neither IC8701 nor ZL006 altered the percent time freezing | significant attenuation of conditioned fear response | disrupt nNOS downstream signaling | not observed a significant difference | not observed a significant difference | not observed a significant difference | Neither IC8701 nor ZL006 altered the percent time freezing | freezing, extinction ([1]; 10 mg/kg i.p., after the acquisition day, 1 hour prior to the consolidation day, FIG. 3): improved extinction; freezing, recall ([1]; 10 mg/kg i.p., after the acquisition day, 1 hour prior to the consolidation day, data not shown): improved recall; NMDAR-dependent excitotoxicity (lactate dehydrogenase release) and cerebral ischemia ([3]; cultured neurons exposed to 50 μM glutamate with 10 μM glycine for 30 min): prevents NMDAR-dependent excitotoxicity and cerebral ischemia; co-immunoprecipitation of nNOS-PSD95 complex [9]: inhibits the in co-immunoprecipitation of nNOS-PSD95 complex; nNOS-PSD95 interaction in the non-ischemic cortex ([10]; non-ischemic cortex, n=3, ZL006 vs vehicle): did not show a significant effects; ischemic induced increase in nNOS-PSD95 interaction ([10]; wild type mice, MCAO and reperfusion): blocks the ischemic induced increase in nNOS-PSD95 interaction; co-immunoprecipitation of nNOS-Capon interaction [11]: does not inhibit; co-immunoprecipitation of PSD95-SynGAP interaction [12]: does not inhibit; NOS activity / NOS catalytic activity [13]: does not inhibit NOS activity; NMDARs EPSCs [14]: does not inhibit NMDARs EPSCs; penetration in the CNS (concentrations in serum, CSF and brain tissue) [15]: significant penetration in the CNS
